# Test results from US11547698B2, “Aryl hydrocarbon receptor modulators” (ARIAGEN, INC., priority 2016, dated 2023).
# pEC50: −log10 of the molar value.
# Molecular target: T1, AhR receptor (Homo sapiens, UniProt P35869)
# T1 construct: cells of reporter gene expressing natural (Human Hepatoma Huh-7) AhR receptor; endogenous in cells; host or cells: Human hepatoma Huh-7 reporter cells (firefly luciferase under a receptor-specific response element)
# T1 sequence (P35869 11-848): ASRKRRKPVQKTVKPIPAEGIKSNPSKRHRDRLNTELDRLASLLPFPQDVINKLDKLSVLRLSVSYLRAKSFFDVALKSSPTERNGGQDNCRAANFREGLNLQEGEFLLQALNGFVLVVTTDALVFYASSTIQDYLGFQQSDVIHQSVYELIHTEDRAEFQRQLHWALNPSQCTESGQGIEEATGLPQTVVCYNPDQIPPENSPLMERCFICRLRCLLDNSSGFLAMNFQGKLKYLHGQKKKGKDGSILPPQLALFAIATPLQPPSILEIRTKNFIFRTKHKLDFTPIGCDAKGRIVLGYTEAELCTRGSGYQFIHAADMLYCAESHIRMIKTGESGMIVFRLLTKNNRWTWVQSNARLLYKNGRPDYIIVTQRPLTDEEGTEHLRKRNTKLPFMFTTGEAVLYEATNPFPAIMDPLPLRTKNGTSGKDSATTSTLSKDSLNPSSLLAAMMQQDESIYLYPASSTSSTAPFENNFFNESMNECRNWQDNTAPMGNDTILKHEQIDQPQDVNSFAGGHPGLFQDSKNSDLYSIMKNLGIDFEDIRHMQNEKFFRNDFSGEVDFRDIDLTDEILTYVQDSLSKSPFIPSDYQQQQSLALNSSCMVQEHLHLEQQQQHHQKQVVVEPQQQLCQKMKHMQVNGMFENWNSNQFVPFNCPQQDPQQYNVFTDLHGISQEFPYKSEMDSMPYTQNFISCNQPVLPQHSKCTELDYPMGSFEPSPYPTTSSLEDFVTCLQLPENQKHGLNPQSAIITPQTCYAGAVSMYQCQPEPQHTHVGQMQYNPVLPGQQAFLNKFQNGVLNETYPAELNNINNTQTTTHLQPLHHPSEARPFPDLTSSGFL
# Assay: AhR agonist assay (luciferase reporter gene cells)
# Assay type: cell-based
# Conditions: reporter cells expressing natural (Human Hepatoma Huh-7) AhR receptor, firefly luciferase, 24 hours at 37° C., 0.1% DMSO
# Description: Experimental material (plasmids): cells of reporter gene expressing natural (Human Hepatoma Huh-7) AhR receptor, in which reporter vector comprises a functional firefly luciferase gene connecting to an upstream receptor specific genetic response element (GRE).
# AhR agonist test includes following three steps:
# 1, Implanting into cells: a suspension of reporter cell of AhR receptor was prepared in cell recovery medium (CRM; containing 10% charcoal-treated FBS). Then the suspension (100 μL) was assigned to wells in a white culture plate with 96 wells.
# 2, Before the experiment was about to begin, Master Stocks was diluted to be a processing medium of “concentration of 2 X” by use of appropriate compound screening assay medium (CSM: containing 10% charcoal-treated FBS). Test compounds were diluted with gradient method by use of CSM medium containing 0.2% DMSO to make the final concentration of DMSO in each well of each treatment group being 0.1%. The processing medium was added to culture plate (100 μL/well) on which cells containing reporter gene had been laid in advance in wells by means of double duplicate. The culture plate was placed in an incubator of 37° C. for 24 hours.
# 3, Fluorescence detection and analysis: after incubation, the processing medium was discarded and luciferase detection reagent was added 100 μL/well. Ave RLU (mean relative fluorescence intensity) of each well and coefficient of variation for each set of experiments were detected. Ratio of Ave RLU^Test Cmpd of treatment groups with test compound of different concentrations to Ave RLU^Vehicle of blank control group can determine activity quantitatively of AhR receptor under influence of test compound of different concentrations and activating multiples as well as EC50.
# Processing method of data may refer to J. Biomol.
row,Compound,pEC50
1,COC(=O)c1coc(-c2csc(C(=O)c3c[nH]c4ccccc34)n2)n1 [Compound 30-2],6.00 to 9.00
2,COC(=O)c1csc(C(=O)c2cn(C(=O)[C@@H](N)C(C)C)c3ccccc23)n1 [Compound 4-2],6.00 to 9.00
3,COCCOCCOCCOCC(=O)OCn1cc(C(=O)c2nc(C(=O)OC)cs2)c2ccccc21 [Compound 6],6.00 to 9.00
4,COC(=O)c1csc(/C(=N/O)c2c[nH]c3ccccc23)n1 [Compound 26-1],5.00 to 6.00
5,COC(=O)c1csc(C(=O)c2cn(COC(=O)[C@@H](N)C(C)C)c3ccccc23)n1 [Compound 1-2],6.00 to 9.00
6,O=C(c1nc(-c2nccs2)cs1)c1c[nH]c2ccccc12 [Compound 31-2],6.00 to 9.00
7,COC(=O)c1csc(C(=O)c2cn(C3OC(COC(C)=O)C(O)C(O)C3O)c3ccccc23)n1 (stereo not shown) [Compound 38-3],6.00 to 9.00
8,COC(=O)c1ccc(C(=O)c2c[nH]c3ccccc23)n1C [Compound 12],6.00 to 9.00
9,O=C(c1nc(C2CC2)cs1)c1c[nH]c2ccccc12 [Compound 41],6.00 to 9.00
10,O=C(c1nc(-c2c[nH]cn2)cs1)c1c[nH]c2ccccc12 [Compound 43-2],6.00 to 9.00
11,COCCOCCOCCOCC(=O)OCC(=O)OCn1cc(C(=O)c2nc(C(=O)OC)cs2)c2ccccc21 [Compound 7],6.00 to 9.00
12,COC(=O)c1csc(C(=O)c2cn(C3OC(COC(C)=O)C(OC(C)=O)C(OC(C)=O)C3OC(C)=O)c3ccccc23)n1 (stereo not shown) [Compound 38-1],6.00 to 9.00
13,CO/N=C(\c1nc(C(=O)OC)cs1)c1c[nH]c2ccccc12 [Compound 25-2],5.00 to 6.00
14,O=C(c1nc(C2=NCCS2)cs1)c1c[nH]c2ccccc12 [Compound 31-1],6.00 to 9.00
15,COC(=O)[C@@H]1COC(c2csc(C(=O)c3c[nH]c4ccccc34)n2)=N1 [Compound 30-1],6.00 to 9.00
16,COC(=O)C1CSC(c2csc(C(=O)c3c[nH]c4ccccc34)n2)=N1 (stereo not shown) [Compound 32-1],6.00 to 9.00
17,CC(C)c1csc(C(=O)c2c[nH]c3ccccc23)n1 [Compound 21],6.00 to 9.00
18,CC(C)[C@H](N)C(=O)n1cc(C(=O)c2nc(-c3nccs3)cs2)c2ccccc21 [Compound 42-2],6.00 to 9.00
19,COC(=O)c1csc(Cc2c[nH]c3ccccc23)n1 [Compound 28],4.00 to 5.00
20,COC(=O)c1c[nH]c(C(=O)c2c[nH]c3ccccc23)n1 [Compound 23],6.00 to 9.00
21,COC(=O)c1ccc(C(=O)c2c[nH]c3ccccc23)nc1 [Compound 18],5.00 to 6.00
22,COC(=O)COCn1cc(C(=O)c2nc(C(=O)OC)cs2)c2ccccc21 [Compound 3],6.00 to 9.00
23,O=C(c1nc(-c2cnccn2)cs1)c1c[nH]c2ccccc12 [Compound 39],6.00 to 9.00

row,Compound,pEC50
1,O=C(c1nc(C2=NCCO2)cs1)c1c[nH]c2ccccc12 [Compound 33-1],6.00 to 9.00
2,O=C(c1nc(-c2ccco2)cs1)c1c[nH]c2ccccc12 [Compound 40],6.00 to 9.00
3,COC(=O)CNC(=O)c1csc(C(=O)c2c[nH]c3ccccc23)n1 [Compound 27],6.00 to 9.00
4,COC(=O)C1CSC(C(=O)c2c[nH]c3ccc(OC)cc23)=N1 (stereo not shown) [Compound 19-1],6.00 to 9.00
5,COC(=O)c1csc(/C(=N\O)c2c[nH]c3ccccc23)n1 [Compound 26-2],5.00 to 6.00
6,O=C(c1nc(-c2nnn[nH]2)cs1)c1c[nH]c2ccccc12 [Compound 35],5.00 to 6.00
7,COC(=O)c1csc(C(=O)c2cn(CO)c3ccccc23)n1 [Compound 37],6.00 to 9.00
8,O=C(c1nc(-c2ncco2)cs1)c1c[nH]c2ccccc12 [Compound 33-2],6.00 to 9.00
9,COC(=O)c1nsc(C(=O)c2c[nH]c3ccccc23)n1 [Compound 8],5.00 to 6.00
10,COC(=O)c1csc(C(=O)c2cn(COC(=O)[C@@H](N)C(C)(C)C)c3ccccc23)n1 [Compound 2-2],6.00 to 9.00
11,COC(=O)c1csc(C(=O)c2cn(C3OC(COC(C)=O)C(OC(C)=O)C(OC(C)=O)C3OC(C)=O)c3ccccc23)n1 (stereo not shown) [Compound 38-2],6.00 to 9.00
12,CC(C)c1nc(C(=O)c2c[nH]c3ccccc23)cs1 [Compound 9],6.00 to 9.00
13,COC(=O)c1nnc(C(=O)c2c[nH]c3ccccc23)o1 [Compound 34],5.00 to 6.00
14,O=C(c1nc(-c2nnc[nH]2)cs1)c1c[nH]c2ccccc12 [Compound 36],6.00 to 9.00
15,COC(=O)c1csc(C(=O)c2c[nH]c3ccc(OC)cc23)n1 [Compound 19-2],6.00 to 9.00
16,COCCOCCOCCOC(=O)n1cc(C(=O)c2nc(C(=O)OC)cs2)c2ccccc21 [Compound 5],6.00 to 9.00
17,COC(=O)c1csc(C(=O)c2cn(C3OC(CO)C(O)C(O)C3O)c3ccccc23)n1 (stereo not shown) [Compound 38-4],6.00 to 9.00
18,CO/N=C(/c1nc(C(=O)OC)cs1)c1c[nH]c2ccccc12 [Compound 25-1],5.00 to 6.00
19,COC(=O)c1csc(-c2csc(C(=O)c3c[nH]c4ccccc34)n2)n1 [Compound 32-2],6.00 to 9.00
20,CC(C)[C@H](NC(=O)OC(C)(C)C)C(=O)n1cc(C(=O)c2nc(-c3nccs3)cs2)c2ccccc21 [Compound 42-1],6.00 to 9.00
21,Nc1nc(-c2csc(C(=O)c3c[nH]c4ccccc34)n2)cs1 [Compound 44],6.00 to 9.00
22,COC(=O)c1csc(C(=O)c2c[nH]c3ccccc23)c1 [Compound 15],4.00 to 5.00
23,O=C(c1nc(-c2ccccn2)cs1)c1c[nH]c2ccccc12 [Compound 22],6.00 to 9.00
